Values of other authors as cited in US9808553B2, “Haemostatic wound dressing” (Haemostatix Limited, priority 2012, dated 2017).

Biological target: fibrinogen (Homo sapiens, UniProt P02679)
Sequence (P02679 27-453): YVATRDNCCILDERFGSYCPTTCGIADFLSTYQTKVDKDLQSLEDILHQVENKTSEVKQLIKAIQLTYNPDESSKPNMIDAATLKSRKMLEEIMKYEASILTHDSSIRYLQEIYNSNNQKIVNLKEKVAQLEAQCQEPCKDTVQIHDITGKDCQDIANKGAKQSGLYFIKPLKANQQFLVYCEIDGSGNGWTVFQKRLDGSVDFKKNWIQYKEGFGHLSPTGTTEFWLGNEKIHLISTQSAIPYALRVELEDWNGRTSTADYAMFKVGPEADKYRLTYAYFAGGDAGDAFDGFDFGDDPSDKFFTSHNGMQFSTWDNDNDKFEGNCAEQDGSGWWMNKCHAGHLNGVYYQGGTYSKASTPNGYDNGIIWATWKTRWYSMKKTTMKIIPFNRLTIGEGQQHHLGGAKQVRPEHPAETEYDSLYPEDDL
Sequence (P02671 20-629 partner limits assumed): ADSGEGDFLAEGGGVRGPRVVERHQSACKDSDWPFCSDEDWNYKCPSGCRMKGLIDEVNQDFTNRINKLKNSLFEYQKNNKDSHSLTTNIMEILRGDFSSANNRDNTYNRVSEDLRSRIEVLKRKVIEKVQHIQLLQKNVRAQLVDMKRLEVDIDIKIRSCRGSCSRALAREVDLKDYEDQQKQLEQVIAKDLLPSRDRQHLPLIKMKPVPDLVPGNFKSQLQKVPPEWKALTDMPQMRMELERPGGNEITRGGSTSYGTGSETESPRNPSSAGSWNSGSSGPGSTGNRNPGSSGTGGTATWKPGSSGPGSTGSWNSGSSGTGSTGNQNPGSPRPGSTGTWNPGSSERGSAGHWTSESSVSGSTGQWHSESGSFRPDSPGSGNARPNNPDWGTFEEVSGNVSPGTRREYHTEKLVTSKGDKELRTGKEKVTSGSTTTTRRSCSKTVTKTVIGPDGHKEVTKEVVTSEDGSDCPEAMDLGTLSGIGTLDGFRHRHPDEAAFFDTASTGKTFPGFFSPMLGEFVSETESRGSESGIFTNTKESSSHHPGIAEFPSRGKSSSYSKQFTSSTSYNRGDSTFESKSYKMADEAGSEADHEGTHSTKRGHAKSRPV
Sequence (P02675 31-491 partner): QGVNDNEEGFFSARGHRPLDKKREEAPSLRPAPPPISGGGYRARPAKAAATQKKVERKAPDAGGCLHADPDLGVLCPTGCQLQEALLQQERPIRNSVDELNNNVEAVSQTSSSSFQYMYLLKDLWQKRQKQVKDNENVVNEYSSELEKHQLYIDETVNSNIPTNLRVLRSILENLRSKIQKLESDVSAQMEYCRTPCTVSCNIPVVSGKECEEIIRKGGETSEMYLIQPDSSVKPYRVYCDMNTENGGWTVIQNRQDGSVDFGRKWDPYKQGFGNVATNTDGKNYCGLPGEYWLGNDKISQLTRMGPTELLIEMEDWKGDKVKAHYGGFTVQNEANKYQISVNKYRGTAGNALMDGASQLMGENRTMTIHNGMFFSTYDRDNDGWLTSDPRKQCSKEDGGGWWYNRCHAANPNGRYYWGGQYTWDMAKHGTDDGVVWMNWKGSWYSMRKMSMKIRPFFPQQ

GPRP
Affinity for fibrinogen versus natural cleaved sequence with valine at position four: higher affinity
